Data reported in publication PMC8537988, “Re-Use of Caco-2 Monolayers in Permeability Assays—Validation Regarding Cell Monolayer Integrity” (Pharmaceutics, 2021).

Tested on: Caco-2 monolayers
Assay: Apical to basolateral permeability of LY through Caco-2 monolayers (Transwell, 12-well)
Type: in vitro ADME, human
Conditions: for LY Papp, µ best fit of Normal distribution to Papp / LY Papp, µ directly from Papp: single sampling at 60 min
Experimental: Caco-2 cells culture and monolayers preparation was as described in the reference protocol. Cells were maintained in T75 cm^2 flasks in culture medium (DMEM supplemented with 1% (v/v) NEAA, 10% (v/v) heat-inactivated FBS), in a humidified atmosphere of 5% CO2 at 37 °C. As recommended in the reference protocol, the permeability assays were performed using cells in passages 95–105. The cells were thawed on passage 89 and sub-cultured twice a week at or shortly before 90% confluency by a 1:8 split. To avoid seeding aggregated cells and the formation of multilayers in Transwell™ inserts, the cell clusters were disaggregated into single cells by passing them 3 times through a syringe needle of 23 gauges (BD Falcon) before cell counting. Caco-2 cells were seeded at 2.6 × 10^5 cells/cm^2 on 12-well polycarbonate filter inserts. The culture medium (with 1% (v/v) Pen/Strep) was replaced by fresh medium 6 h following seeding and then every 2–3 days thereafter until transport experiments.
The reference protocol was followed in the permeability assays, with slight modifications as required by the new experimental approach. Manipulation of the cell monolayers was conducted under sterile conditions (in the laminar flow hood or incubator). At the day of the experiments, the culture medium was removed and HBSS (further supplemented with 25 mM HEPES, 0.35 g/L sodium bicarbonate, pH 7.4) pre-warmed to 37 °C was added to the donor (0.5 mL) and receiver (1.5 mL) sides to wash the cell monolayers. The plate containing the inserts was placed (lid-covered) in an incubator without CO2 at 37 °C with an orbital shaker (IKA-Schüttler MTS4, JMGS, Lisboa, Portugal) at 50 rpm for 8 min. The washing step was repeated with new HBSS. The TEER was measured in HBSS at 37 °C using a Millicell® ERS-2 voltmeter equipped with a chopstick electrode pair (Merck, Lisboa, Portugal). A filter insert without cells was included in each set of experiments for correction of the TEER value for the background resistance. The resistance values (Ω cm^2) of the cell monolayers were obtained by subtracting the TEER value from blank inserts and multiplying by the surface area of the insert. All cell monolayers presented TEER values above 200 Ω cm^2. At least one insert of the set was fixed and stained for confocal microscopy analysis (see next section). The remaining ones were used to perform the apical to basolateral permeability assays with the paracellular marker LY. For this, the donor HBSS washing solution was decanted, and the inserts were placed into empty wells of a fresh 12-well plate. The permeability assay was initiated with the addition of 450 µL of the LY solution (20 µM in HBSS at 37 °C) simultaneously to the donor compartments of 3 to 4 insert, from which a 50 µL aliquot was immediately collected and stored for the calculation of the solute concentration in the donor compartment at t = 0. The inserts containing the LY solution were subsequently positioned in a pre-prepared 12-well plate containing HBSS (1.2 mL per well), and the lid-covered plate was placed on the incubator (without CO2, 50 rpm and 37 °C). At the defined sampling times, the plate was positioned into the laminar flow hood and the inserts were transferred into new wells containing fresh HBSS. The high fluorescence quantum yield of LY allows its detection by […], even for the very small amount expected to permeate during short permeation intervals. In this work we used 10, 20, 30, and 60 min or 60 min only as sampling times. At the end of the assay, inserts were transferred to empty wells and 50 µL was taken from the donor compartment for the calculation of the solute mass balance. The remaining solution was decanted, the inserts were placed on new wells containing 1.5 mL of pre-warm HBSS, and 0.5 mL of pre-warmed HBSS was added to each insert for TEER measurements. Some selected monolayers were prepared for microscopy; the remaining were incubated with culture media for re-use, as described below. […]

[1] = day 22, both sampling intervals (10 or 60 min)

## Lucifer yellow CH di-potassium salt [LY]
All days, all (88)
  LY Papp, µ best fit of Normal distribution to Papp: 1.9 10^-7 cm/s
  LY Papp, µ directly from Papp: 2.1 10^-7 cm/s
All days, re-use (41)
  LY Papp, µ best fit of Normal distribution to Papp: 1.6 10^-7 cm/s
  LY Papp, µ directly from Papp: 1.8 10^-7 cm/s
All days, single use & re-use, 1st 10 min (65)
  LY QA, µ from Log(QA): 0.18%
All days, single use & re-use, 1st 60 min (88)
  LY QA, µ from Log(QA): 0.20%
All days, single use & re-use, 2nd 10 min (66)
  LY QA, µ from Log(QA): 0.21%
All days, single use & re-use, 3rd 10 min (62)
  LY QA, µ from Log(QA): 0.25%
All days, single use & re-use, 4th 30 min (62)
  LY QA, µ from Log(QA): 0.35%
All days, single use & re-use, all 1st samplings (153)
  LY QA, µ from Log(QA): 0.19%
All days, single use & re-use, all samplings (346)
  LY QA, µ from Log(QA): 0.23%
All days, single use (47)
  LY Papp, µ best fit of Normal distribution to Papp: 2.1 10^-7 cm/s
  LY Papp, µ directly from Papp: 2.4 10^-7 cm/s
Day 22, all (35)
  LY Papp, µ best fit of Normal distribution to Papp: 2.0 10^-7 cm/s
  LY Papp, µ directly from Papp: 2.3 10^-7 cm/s
Day 22, batch 1, passage 95, single use, one-time sampling (60 min)
  QA (%), µ, LY transported during first sampling interval: 0.18%
Day 22, batch 1, passage 98, single use, multi-time sampling (10 min)
  QA (%), µ, LY transported during first sampling interval: 0.19%
Day 22, batch 1, passage 100, single use, multi-time sampling (10 min)
  QA (%), µ, LY transported during first sampling interval: 0.36%
Day 22, batch 1, passage 104, single use, multi-time sampling (10 min)
  QA (%), µ, LY transported during first sampling interval: 0.16%
Day 22, batch 1, passage 105, single use, multi-time sampling (10 min)
  QA (%), µ, LY transported during first sampling interval: 0.22%
Day 22, batch 2, passage 95, single use, one-time sampling (60 min)
  QA (%), µ, LY transported during first sampling interval: 0.27%
Day 22, batch 2, passage 98, single use, one-time sampling (60 min)
  QA (%), µ, LY transported during first sampling interval: 0.30%
Day 22, batch 3, passage 95, single use, one-time sampling (60 min)
  QA (%), µ, LY transported during first sampling interval: 0.19%
[1]
  LogQA, centre of Normal distribution: around −0.6
  QA, amount of LY that reaches the acceptor compartment: around 0.2%
Day 22, single use, 1st 10 min (27)
  LY QA, µ from Log(QA): 0.25%
Day 22, single use, 1st 60 min (35)
  LY QA, µ from Log(QA): 0.21%
Day 22, single use, 2nd 10 min (28)
  LY QA, µ from Log(QA): 0.29%
Day 22, single use, 3rd 10 min (26)
  LY QA, µ from Log(QA): 0.37%
Day 22, single use, 4th 30 min (28)
  LY QA, µ from Log(QA): 0.48%
Day 22, single use, all 1st samplings (62)
  LY QA, µ from Log(QA): 0.23%
Day 22, single use, all samplings (144)
  LY QA, µ from Log(QA): 0.30%
Day 25, all (29)
  LY Papp, µ best fit of Normal distribution to Papp: 1.7 10^-7 cm/s
  LY Papp, µ directly from Papp: 1.9 10^-7 cm/s
Day 25, batch 1, passage 95, re-use, one-time sampling (60 min)
  QA (%), µ, LY transported during first sampling interval: 0.21%
Day 25, batch 1, passage 95, single use, one-time sampling (60 min)
  QA (%), µ, LY transported during first sampling interval: 0.13%
Day 25, batch 1, passage 98, single use, multi-time sampling (10 min)
  QA (%), µ, LY transported during first sampling interval: 0.10%
Day 25, batch 1, passage 100, re-use, multi-time sampling (10 min)
  QA (%), µ, LY transported during first sampling interval: 0.25%
Day 25, batch 1, passage 104, single use, multi-time sampling (10 min)
  QA (%), µ, LY transported during first sampling interval: 0.14%
Day 25, batch 1, passage 105, re-use, multi-time sampling (10 min)
  QA (%), µ, LY transported during first sampling interval: 0.20%
Day 25, batch 2, passage 95, re-use, one-time sampling (60 min)
  QA (%), µ, LY transported during first sampling interval: 0.16%
Day 25, batch 2, passage 98, single use, one-time sampling (60 min)
  QA (%), µ, LY transported during first sampling interval: 0.25%
Day 25, batch 3, passage 95, re-use, one-time sampling (60 min)
  QA (%), µ, LY transported during first sampling interval: 0.19%
Day 25, re-use (23)
  LY Papp, µ best fit of Normal distribution to Papp: 1.7 10^-7 cm/s
  LY Papp, µ directly from Papp: 1.9 10^-7 cm/s
Day 25, re-use, 1st 10 min (16)
  LY QA, µ from Log(QA): 0.22%
Day 25, re-use, 1st 60 min (23)
  LY QA, µ from Log(QA): 0.18%
Day 25, re-use, 2nd 10 min (16)
  LY QA, µ from Log(QA): 0.28%
Day 25, re-use, 3rd 10 min (16)
  LY QA, µ from Log(QA): 0.27%
Day 25, re-use, 4th 30 min (16)
  LY QA, µ from Log(QA): 0.38%
Day 25, re-use, all 1st samplings (39)
  LY QA, µ from Log(QA): 0.20%
Day 25, single use & re-use, 1st 10 min (22)
  LY QA, µ from Log(QA): 0.19%
Day 25, single use & re-use, 1st 60 min (29)
  LY QA, µ from Log(QA): 0.18%
Day 25, single use & re-use, 2nd 10 min (22)
  LY QA, µ from Log(QA): 0.25%
Day 25, single use & re-use, 3rd 10 min (22)
  LY QA, µ from Log(QA): 0.25%
Day 25, single use & re-use, 4th 30 min (22)
  LY QA, µ from Log(QA): 0.36%
Day 25, single use & re-use, all 1st samplings (51)
  LY QA, µ from Log(QA): 0.18%
Day 25, single use & re-use, all samplings (117)
  LY QA, µ from Log(QA): 0.23%
Day 25, single use (6)
  LY Papp, µ directly from Papp: 2.1 10^-7 cm/s
Day 25, single use, 1st 10 min (6)
  LY QA, µ from Log(QA): 0.12%
Day 25, single use, 1st 60 min (6)
  LY QA, µ from Log(QA): 0.18%
Day 25, single use, 2nd 10 min (6)
  LY QA, µ from Log(QA): 0.19%
Day 25, single use, 3rd 10 min (6)
  LY QA, µ from Log(QA): 0.20%
Day 25, single use, 4th 30 min (6)
  LY QA, µ from Log(QA): 0.31%
Day 25, single use, all 1st samplings (12)
  LY QA, µ from Log(QA): 0.15%
Day 28, all (24)
  LY Papp, µ best fit of Normal distribution to Papp: 1.8 10^-7 cm/s
  LY Papp, µ directly from Papp: 2.2 10^-7 cm/s
Day 28, batch 1, passage 95, re-use, one-time sampling (60 min)
  QA (%), µ, LY transported during first sampling interval: 0.33%
Day 28, batch 1, passage 95, single use, one-time sampling (60 min)
  QA (%), µ, LY transported during first sampling interval: 0.39%
Day 28, batch 1, passage 98, single use, multi-time sampling (10 min)
  QA (%), µ, LY transported during first sampling interval: 0.09%
Day 28, batch 1, passage 100, re-use, multi-time sampling (10 min)
  QA (%), µ, LY transported during first sampling interval: 0.09%
Day 28, batch 1, passage 104, single use, multi-time sampling (10 min)
  QA (%), µ, LY transported during first sampling interval: 0.23%
Day 28, batch 1, passage 105, re-use, multi-time sampling (10 min)
  QA (%), µ, LY transported during first sampling interval: 0.06%
Day 28, batch 2, passage 95, re-use, one-time sampling (60 min)
  QA (%), µ, LY transported during first sampling interval: 0.11%
Day 28, batch 2, passage 98, single use, one-time sampling (60 min)
  QA (%), µ, LY transported during first sampling interval: 0.26%
Day 28, batch 3, passage 95, re-use, one-time sampling (60 min)
  QA (%), µ, LY transported during first sampling interval: 0.17%
Day 28, re-use (18)
  LY Papp, µ best fit of Normal distribution to Papp: 1.4 10^-7 cm/s
  LY Papp, µ directly from Papp: 1.8 10^-7 cm/s
Day 28, re-use, 1st 10 min (10)
  LY QA, µ from Log(QA): 0.07%
Day 28, re-use, 1st 60 min (18)
  LY QA, µ from Log(QA): 0.16%
Day 28, re-use, 2nd 10 min (10)
  LY QA, µ from Log(QA): 0.08%
Day 28, re-use, 3rd 10 min (8)
  LY QA, µ from Log(QA): 0.11%
Day 28, re-use, 4th 30 min (10)
  LY QA, µ from Log(QA): 0.19%
Day 28, re-use, all 1st samplings (28)
  LY QA, µ from Log(QA): 0.12%
Day 28, single use & re-use, 1st 10 min (16)
  LY QA, µ from Log(QA): 0.09%
Day 28, single use & re-use, 1st 60 min (24)
  LY QA, µ from Log(QA): 0.19%
Day 28, single use & re-use, 2nd 10 min (16)
  LY QA, µ from Log(QA): 0.10%
Day 28, single use & re-use, 3rd 10 min (14)
  LY QA, µ from Log(QA): 0.13%
Day 28, single use & re-use, 4th 30 min (16)
  LY QA, µ from Log(QA): 0.20%
Day 28, single use & re-use, all 1st samplings (40)
  LY QA, µ from Log(QA): 0.14%
Day 28, single use & re-use, all samplings (86)
  LY QA, µ from Log(QA): 0.14%
Day 28, single use (6)
  LY Papp, µ directly from Papp: 3.3 10^-7 cm/s
Day 28, single use, 1st 10 min (6)
  LY QA, µ from Log(QA): 0.15%
Day 28, single use, 1st 60 min (6)
  LY QA, µ from Log(QA): 0.32%
Day 28, single use, 2nd 10 min (6)
  LY QA, µ from Log(QA): 0.14%
Day 28, single use, 3rd 10 min (6)
  LY QA, µ from Log(QA): 0.15%
Day 28, single use, 4th 30 min (6)
  LY QA, µ from Log(QA): 0.24%
Day 28, single use, all 1st samplings (12)
  LY QA, µ from Log(QA): 0.22%
